Measured values from US20240116985A1, “STAPLED PEPTIDES AND METHODS THEREOF” (priority 2020, published 2024).

Target: T1, full-length beta-Catenin (Uniprot ID P35222) (Homo sapiens, UniProt P35222)
T1 construct: 10 nM full-length beta-Catenin (Uniprot ID P35222)
T1 sequence (P35222 1-781): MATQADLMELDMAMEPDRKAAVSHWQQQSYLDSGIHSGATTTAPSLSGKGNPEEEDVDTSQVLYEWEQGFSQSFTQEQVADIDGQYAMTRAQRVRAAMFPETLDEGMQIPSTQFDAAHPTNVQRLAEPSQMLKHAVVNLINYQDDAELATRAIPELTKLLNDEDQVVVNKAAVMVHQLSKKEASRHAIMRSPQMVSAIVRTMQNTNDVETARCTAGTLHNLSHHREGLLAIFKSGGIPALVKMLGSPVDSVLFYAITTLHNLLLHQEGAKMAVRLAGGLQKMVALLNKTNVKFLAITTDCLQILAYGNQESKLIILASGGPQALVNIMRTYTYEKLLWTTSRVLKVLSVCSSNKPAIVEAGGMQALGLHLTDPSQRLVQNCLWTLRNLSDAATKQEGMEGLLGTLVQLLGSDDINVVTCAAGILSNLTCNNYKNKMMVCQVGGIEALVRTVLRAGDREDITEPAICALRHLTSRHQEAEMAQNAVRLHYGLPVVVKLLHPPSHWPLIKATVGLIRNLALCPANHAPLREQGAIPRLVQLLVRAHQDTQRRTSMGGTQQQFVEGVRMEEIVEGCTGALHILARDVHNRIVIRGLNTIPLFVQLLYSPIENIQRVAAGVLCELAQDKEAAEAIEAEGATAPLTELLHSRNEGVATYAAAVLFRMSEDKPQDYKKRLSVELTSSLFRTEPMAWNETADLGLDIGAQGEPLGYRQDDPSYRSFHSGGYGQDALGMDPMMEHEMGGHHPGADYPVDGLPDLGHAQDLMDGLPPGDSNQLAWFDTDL
Test: Fluorescence polarization IC50 (beta-catenin / 5FAM-TCF4 10-53 competition)
Type: binding
Settings: fluorescence polarization; read-out: beta-Catenin FP IC50

Work on CC(=O)N1CCC[C@]12CC=CCCCC1(CCCC=CCCCOC(=O)N3CC[C@@](C(=O)N[C@@H](Cc4ccsc4)C(=O)N[C@@H](Cc4csc5ccccc45)C(=O)N[C@@H](CCC(N)=O)C(N)=O)(C3)NC(=O)[C@H](CC(C)C)NC(=O)[C@H](Cc3ccccc3)NC(=O)[C@H](CCN3CCN(C)CC3)NC(=O)[C@H](C)NC(=O)[C@H](CC(=O)O)NC(=O)[C@H](CC(=O)O)NC1=O)NC(=O)[C@H](CC(C)(C)C)NC(=O)[C@H](CC(=O)O)NC2=O (stereo partly drawn) [I-1506, Ac-PL3-Asp-Npg-B5-Asp-Asp-Ala-MePpzAbu-Phe-Leu-PyrS2-3Thi-BztA-Gln-NH2] yielded an IC50 of 89 nM.
CC(=O)N1CCC[C@]12CC=CCCCC1(CCCC=CCCCOC(=O)N3CC[C@@](C(=O)N[C@@H](Cc4cccc(Br)c4)C(=O)N[C@@H](Cc4ccsc4)C(=O)N[C@@H](CCC(N)=O)C(N)=O)(C3)NC(=O)[C@H](CC(C)C)NC(=O)[C@H](Cc3ccccc3)NC(=O)[C@H](C)NC(=O)[C@H](C)NC(=O)[C@H](Cc3cccc(C(=O)O)c3)NC(=O)[C@H](CC(=O)O)NC1=O)NC(=O)[C@H](CC(C)(C)C)NC(=O)[C@H](CC(=O)O)NC2=O (stereo partly drawn) [I-2152, Ac-PL3-Asp-Npg-B5-Asp-3COOHF-Ala-Ala-Phe-Leu-PyrS2-3BrF-3Thi-Gln-NH2] showed an IC50 of 3080 nM.
CC(=O)N1CCC[C@]12CC=CCCCCC1(CCCCC=CCCCOC(=O)N3CC[C@@](C(=O)N[C@@H](Cc4ccccc4C(F)(F)F)C(=O)N[C@@H](Cc4csc5ccccc45)C(=O)N[C@@H](CCC(N)=O)C(N)=O)(C3)NC(=O)[C@H](CC(C)C)NC(=O)[C@H](Cc3ccccc3)NC(=O)[C@H](C)NC(=O)[C@H](C)NC(=O)[C@H](Cc3cccc(C(=O)O)c3)NC(=O)[C@H](CC(=O)O)NC1=O)NC(=O)[C@H](CC(C)(C)C)NC(=O)[C@H](CC(=O)O)NC2=O (stereo partly drawn) [I-2511, Ac-PL3-Asp-Npg-B6-Asp-3COOHF-Ala-Ala-Phe-Leu-PyrS2-2F3MeF-BztA-Gln-NH2] gave an IC50 of 566 nM.
CC(=O)N1CCC[C@]12CC=CCCCC1(CCCC=CCCCOC(=O)N3CC[C@@](C(=O)N[C@@H](Cc4ccccc4)C(=O)N[C@@H](Cc4csc5ccccc45)C(=O)N[C@@H](CCC(N)=O)C(N)=O)(C3)NC(=O)[C@H](CC(C)C)NC(=O)[C@H](Cc3ccccc3)NC(=O)[C@H](C)NC(=O)[C@H](CCCCNC(C)C)NC(=O)[C@H]([C@@H](C)O)NC(=O)[C@H](CC(=O)O)NC1=O)NC(=O)[C@H](Cc1ccccc1)NC(=O)[C@H](CC(N)=O)NC2=O (stereo partly drawn) [I-1580, Ac-PL3-Asn-Phe-B5-Asp-Thr-iPrLys-Ala-Phe-Leu-PyrS2-Phe-BztA-Gln-NH2] showed an IC50 of 1430 nM.
With CC(=O)N1CCC[C@]12CC=CCCCC1(CCCC=CCCCOC(=O)N3CC[C@@](C(=O)N[C@@H](Cc4ccsc4)C(=O)N[C@@H](Cc4csc5ccccc45)C(=O)N[C@@H](CCC(N)=O)C(N)=O)(C3)NC(=O)[C@H](CC(C)C)NC(=O)[C@H](Cc3ccccc3)NC(=O)[C@H](C)NC(=O)[C@H](C)NC(=O)[C@H](CC(=O)S)NC(=O)[C@H](CC(=O)O)NC1=O)NC(=O)[C@H](CC(C)(C)C)NC(=O)[C@H](CC(=O)O)NC2=O (stereo partly drawn) [I-1946, Ac-PL3-Asp-Npg-B5-Asp-AspSH-Ala-Ala-Phe-Leu-PyrS2-3Thi-BztA-Gln-NH2] the IC50 was 874 nM.
CCCCCCSSCCOC(=O)C[C@@H]1NC(=O)[C@]2(CC=CCCCC3(CCCC=CCCCOC(=O)N4CC[C@@](C(=O)N[C@@H](Cc5ccsc5)C(=O)N[C@@H](Cc5csc6ccccc56)C(=O)N[C@@H](CCC(N)=O)C(N)=O)(C4)NC(=O)[C@H](CC(C)C)NC(=O)[C@H](Cc4ccccc4)NC(=O)[C@H](C)NC(=O)[C@H](C)NC(=O)[C@H](CC(=O)O)NC(=O)[C@H](CC(=O)O)NC3=O)NC(=O)[C@H](CC(C)(C)C)NC1=O)CCCN2C(C)=O (stereo partly drawn) [I-1960, Ac-PL3-[EtSSHex]AspE-Npg-B5-Asp-Asp-Ala-Ala-Phe-Leu-PyrS2-3Thi-BztA-Gln-NH2] showed an IC50 of 544 nM.
Work on CC(=O)N1CCC[C@]12CC=CCCCC1(CCCC=CCCCOC(=O)N3CC[C@@](C(=O)N[C@@H](Cc4ccsc4)C(=O)N[C@@H](Cc4csc5ccccc45)C(=O)N[C@@H](CCC(N)=O)C(N)=O)(C3)NC(=O)[C@H](CCO)NC(=O)[C@H](Cc3ccccc3)NC(=O)[C@H](C)NC(=O)[C@H](C)NC(=O)[C@H](Cc3c[nH]c4ccccc34)NC(=O)[C@H](CC(=O)O)NC1=O)NC(=O)[C@H](CC(C)(C)C)NC(=O)[C@H](CC(=O)O)NC2=O (stereo partly drawn) [I-1789, Ac-PL3-Asp-Npg-B5-Asp-Trp-Ala-Ala-Phe-Hse-PyrS2-3Thi-BztA-Gln-NH2] yielded an IC50 of 183 nM.
CC(=O)N1CCC[C@]12CC=CCCCC1(CCCC=CCCCOC(=O)N3CC[C@@](C(=O)N[C@@H](Cc4ccccc4)C(=O)N[C@@H](Cc4csc5ccccc45)C(=O)N[C@@H](CCC(N)=O)C(N)=O)(C3)NC(=O)[C@H](CC(C)C)NC(=O)[C@H](Cc3ccccc3)NC(=O)[C@H](C)NC(=O)[C@H](CCCCNC(C)C)NC(=O)[C@H]([C@@H](C)O)NC(=O)[C@H](CC(=O)O)NC1=O)NC(=O)[C@H](CO)NC(=O)[C@H](CC(N)=O)NC2=O (stereo partly drawn) [I-1583, Ac-PL3-Asn-Ser-B5-Asp-Thr-iPrLys-Ala-Phe-Leu-PyrS2-Phe-BztA-Gln-NH2] gave an IC50 of 3420 nM.
CC(=O)N1CCC[C@]12CC=CCCCC1(CCCC=CCCCOC(=O)N3CC[C@@](C(=O)N[C@@H](Cc4ccsc4)C(=O)N[C@@H](Cc4csc5ccccc45)C(=O)N[C@@H](CCC(N)=O)C(N)=O)(C3)NC(=O)[C@H](CC(N)=O)NC(=O)[C@H](Cc3ccccc3)NC(=O)[C@H](C)NC(=O)[C@H](C)NC(=O)[C@H]([C@@H](C)O)NC(=O)[C@H](CC(N)=O)NC1=O)NC(=O)[C@H](CC1CCCCC1)NC(=O)[C@H](CC(=O)O)NC2=O (stereo partly drawn) [I-1884, Ac-PL3-Asp-Cha-B5-Asn-Thr-Ala-Ala-Phe-Asn-PyrS2-3Thi-BztA-Gln-NH2] was tested, and the IC50 was 249 nM.
For CC(=O)N1CCC[C@]12CC=CCCCC1(CCCC=CCCCOC(=O)N3CC[C@@](C(=O)N[C@@H](Cc4ccsc4)C(=O)N[C@@H](Cc4csc5ccccc45)C(=O)N[C@@H](CCC(N)=O)C(N)=O)(C3)NC(=O)[C@H](CC(N)=O)NC(=O)[C@H](Cc3ccccc3)NC(=O)[C@H](C)NC(=O)[C@H](C)NC(=O)[C@H](CN(CCC(F)(F)F)CC(=O)O)NC(=O)[C@H](CC(=O)O)NC1=O)NC(=O)[C@H](CC(C)(C)C)NC(=O)[C@H](CC(=O)O)NC2=O (stereo partly drawn) [I-1640, Ac-PL3-Asp-Npg-B5-Asp-[Tfp]GA-Ala-Ala-Phe-Asn-PyrS2-3Thi-BztA-Gln-NH2], the IC50 was 8 nM.
With CC(=O)N1CCC[C@]12CC=CCCCC1(CCCC=CCCCOC(=O)N3CC[C@@](C(=O)N[C@@H](Cc4ccsc4)C(=O)N[C@@H](Cc4csc5ccccc45)C(=O)N[C@@H](CCC(N)=O)C(N)=O)(C3)NC(=O)[C@H](CC(N)=O)NC(=O)[C@H](Cc3ccccc3)NC(=O)[C@H](C)NC(=O)[C@H](C)NC(=O)[C@H](Cc3cccc(C(=O)O)c3)NC(=O)[C@H](CC(N)=O)NC1=O)NC(=O)[C@H](CC(C)(C)C)NC(=O)[C@H](CC(=O)O)NC2=O (stereo partly drawn) [I-2335, Ac-PL3-Asp-Npg-B5-Asn-3COOHF-Ala-Ala-Phe-Asn-PyrS2-3Thi-BztA-Gln-NH2] the IC50 was 7 nM.
For CCCCOC(=O)N1CCC[C@]12CC=CCCCC1(CCCC=CCCCOC(=O)N3CC[C@@](C(=O)N[C@@H](Cc4ccsc4)C(=O)N[C@@H](Cc4csc5ccccc45)C(=O)N[C@@H](Cc4c[nH]cn4)C(N)=O)(C3)NC(=O)[C@H](CCC(N)=O)NC(=O)[C@H](Cc3ccccc3)NC(=O)[C@H](C)NC(=O)[C@H](C)NC(=O)[C@H](CC(=O)O)NC(=O)[C@H](CC(=O)O)NC1=O)NC(=O)[C@H](CC(C)(C)C)NC(=O)[C@H](CC(=O)O)NC2=O (stereo partly drawn) [I-2363, CO2Bu-PL3-Asp-Npg-B5-Asp-Asp-Ala-Ala-Phe-Gln-PyrS2-3Thi-BztA-His-NH2], the IC50 was 44 nM.
Work on CC(=O)N1CCC[C@]12CC=CCCCC1(CCCC=CCCCOC(=O)N3CC[C@@](C(=O)N[C@@H](Cc4ccsc4)C(=O)N[C@@H](Cc4cccc5ccccc45)C(=O)N[C@@H](CCC(N)=O)C(N)=O)(C3)NC(=O)[C@H](CC(N)=O)NC(=O)[C@H](Cc3ccccc3)NC(=O)[C@H](C)NC(=O)[C@H](C)NC(=O)[C@H]([C@@H](C)O)NC(=O)[C@H](CC(N)=O)NC1=O)NC(=O)[C@H](CC(C)(C)C)NC(=O)[C@H](CC(=O)O)NC2=O (stereo partly drawn) [I-1871, Ac-PL3-Asp-Npg-B5-Asn-Thr-Ala-Ala-Phe-Asn-PyrS2-3Thi-1NapA-Gln-NH2] yielded an IC50 of 1770 nM.
CC(=O)N1CCC[C@]12CC=CCCCCC1(CCCCC=CCCCOC(=O)N3CC[C@@](C(=O)N[C@@H](Cc4ccccc4C(F)(F)F)C(=O)N[C@@H](Cc4csc5ccccc45)C(=O)N[C@@H](CCC(N)=O)C(N)=O)(C3)NC(=O)[C@H](CC(C)C)NC(=O)[C@H](Cc3ccccc3)NC(=O)[C@H](C)NC(=O)[C@H](C)NC(=O)[C@H](Cc3cccc(C(=O)O)c3)NC(=O)[C@H](CC(=O)O)NC1=O)NC(=O)[C@H](CC(C)(C)C)NC(=O)[C@H](CC(=O)O)NC2=O (stereo partly drawn) [I-2512, Ac-PL3-Asp-Npg-B6-Asp-3COOHF-Ala-Ala-Phe-Leu-PyrS2-2F3MeF-BztA-Gln-NH2] showed an IC50 of 245 nM.
